In US20210204539A1, “Method for Suppressing Freezing Damage and Composition for Preventing Freezing Damage” (Kyoto University, priority 2018, published 2021):

Columns and labels:
Flp-In™ CHO cell line = experiment: Cold storage time versus viability, Flp-In CHO (Example 2); format: cell-based
Protocol: (§1) Then, the culturing at 4° C. in a low temperature incubator was performed. The cell viability one hour after the rewarming using a medium at 37° C. was determined by detecting enzyme activity with use of alamarBlue™. The relationship between the cold storage time and the viability was observed.

[1] = system: human umbilical vascular endothelial cell line HUEhT-2; experiment: Cold storage time versus viability, HUEhT-2 (Example 2); format: cell-based; conditions: HUEhT-2, 10 μM
Protocol: as §1

[2] = system: myocardium in the hearts of transplanted rats; experiment: Rat heart 24-hour cold storage and ectopic transplantation, Masson's trichrome staining (Example 4); format: in vivo, LEW rats; conditions: UW solution with 10 μM, 24-hour cold storage at 4° C., one week after transplantation, versus Vehicle group
Protocol: To each of 7 to 8 week-old LEW rats as recipients, laparotomy under general anesthesia was performed to expose the abdominal aorta and the vena cava. Then, the heart in cold storage was taken out of the UW solution, and ectopic transplantation was carried out, by end-to-side anastomosis between the pulmonary artery and the aorta of the donor and the abdominal vena cava and the aorta of the recipient, respectively, followed by laparotomy closure. The heart was removed one week after the transplantation, and the viable area and fibrotic area of myocardium in the heart were compared by using Masson's trichrome staining (N=5 in each group).

S1PR2 = S1PR2 (Homo sapiens, UniProt O95136); conditions: reported; cited from earlier work
Sequence of S1PR2 (O95136 whole entry, species assumed): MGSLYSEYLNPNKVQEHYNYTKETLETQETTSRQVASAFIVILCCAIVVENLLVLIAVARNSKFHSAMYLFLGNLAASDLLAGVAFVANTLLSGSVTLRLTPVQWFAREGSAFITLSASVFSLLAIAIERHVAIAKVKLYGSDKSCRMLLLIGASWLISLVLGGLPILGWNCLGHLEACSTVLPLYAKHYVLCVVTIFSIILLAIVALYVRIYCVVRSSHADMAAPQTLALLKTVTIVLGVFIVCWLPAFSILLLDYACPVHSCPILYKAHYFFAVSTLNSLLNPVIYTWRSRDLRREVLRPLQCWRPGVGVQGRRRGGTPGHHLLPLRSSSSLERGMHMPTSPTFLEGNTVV

S1PR1 = S1PR1 (Homo sapiens, UniProt P21453); conditions: reported; cited from earlier work
Sequence of S1PR1 (P21453 whole entry, species assumed): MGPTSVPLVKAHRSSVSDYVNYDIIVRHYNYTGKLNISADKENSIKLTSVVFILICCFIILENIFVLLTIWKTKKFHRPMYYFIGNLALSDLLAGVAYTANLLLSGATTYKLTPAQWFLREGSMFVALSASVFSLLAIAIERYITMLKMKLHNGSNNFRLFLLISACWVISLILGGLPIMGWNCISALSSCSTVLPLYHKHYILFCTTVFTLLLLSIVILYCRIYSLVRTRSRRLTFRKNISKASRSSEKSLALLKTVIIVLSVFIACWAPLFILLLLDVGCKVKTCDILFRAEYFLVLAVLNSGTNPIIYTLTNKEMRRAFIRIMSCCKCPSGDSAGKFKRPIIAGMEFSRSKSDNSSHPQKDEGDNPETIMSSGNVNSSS

the cells = experiment: Toxicity to the cells when administered at a time other than the low-temperature preservation; format: cell-based; conditions: e.g. during a normal-temperature preservation
[3] = system: cell line HepG2 derived from a human liver cancer; experiment: Cold damage suppression, HepG2 cultured at 4° C. for 24 hours, viability after rewarming by alamarBlue (Examples 1, 5, 6); format: cell-based; conditions: HepG2, 4° C. 24 hours, compound 0 M to 50 μM, viability one hour after rewarming at 37° C.
Protocol: Then, the culturing at 4° C. in a low temperature incubator was performed for 24 hours. After the culturing at low temperature for 24 hours, rewarming was carried out using a medium at 37° C., and the viability of cells one hour after the rewarming was determined by detecting enzyme activity using alamarBlue™. The compound concentration was varied from 0 M (Vehicle) to 50 μM, so that the concentration dependency of the compound was observed.
Using the compounds 1 and 3 to 7 synthesized by the above-described scheme, the cell line HepG2 derived from a human liver cancer was cultured under the presence of the respective compounds at low temperature, and cold damage suppression effects were assessed.
HepG2 cells were cultured at 37° C. so as to be at a density of 80 to 90%, and thereafter, the medium was replaced with a medium (DMEM) at 4° C. to which any one of the compounds 1 and 3 to 7 had been added preliminarily. Then, the culturing at 4° C. in a low temperature incubator was performed for 24 hours. After the culturing at low temperature for 24 hours, rewarming was carried out by a medium at 37° C., and the viability of cells one hour […] determined by detecting enzyme activity using alamarBlue™. The compound concentration was varied from 0 M (Vehicle) to 50 μM, so that the concentration dependency of the compound was observed. […]

[4] = system: cell line HepG2 derived from a human liver cancer; experiment: Cold storage time versus viability, HepG2 (Example 2); format: cell-based; conditions: HepG2, 10 μM, 4° C., versus Vehicle
Protocol: as §1

S1PR4 = target: T1, S1PR4 (Homo sapiens, UniProt O95977); conditions: reported; cited from earlier work
T1 sequence (O95977 1-384): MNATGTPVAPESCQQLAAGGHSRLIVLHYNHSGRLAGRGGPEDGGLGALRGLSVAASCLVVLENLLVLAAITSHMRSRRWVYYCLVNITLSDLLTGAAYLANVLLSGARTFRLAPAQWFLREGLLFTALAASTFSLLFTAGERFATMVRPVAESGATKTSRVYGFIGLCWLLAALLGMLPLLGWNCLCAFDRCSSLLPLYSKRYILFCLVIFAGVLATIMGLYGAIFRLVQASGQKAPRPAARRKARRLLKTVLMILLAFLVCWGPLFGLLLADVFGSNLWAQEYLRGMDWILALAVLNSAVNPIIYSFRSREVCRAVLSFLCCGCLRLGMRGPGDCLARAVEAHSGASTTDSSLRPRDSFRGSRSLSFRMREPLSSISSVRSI

[5] = system: cells preserved at low temperature; experiment: Cold damage suppression at varied timings of contact with the compound (Example 3); format: cell-based
Protocol: Cells were cultured at 37° C. so as to be at a density of 80 to 90%, and thereafter, the medium was replaced with a medium at 4° C. Then, the culturing at 4° C. in a low temperature incubator was performed. […] The cell viability one hour after the rewarming using a medium at 37° C. was determined by detecting enzyme activity with use of alamarBlue™.

S1PR5 = S1PR5 (Homo sapiens, UniProt Q9H228); conditions: reported; cited from earlier work
Sequence of S1PR5 (Q9H228 whole entry, species assumed): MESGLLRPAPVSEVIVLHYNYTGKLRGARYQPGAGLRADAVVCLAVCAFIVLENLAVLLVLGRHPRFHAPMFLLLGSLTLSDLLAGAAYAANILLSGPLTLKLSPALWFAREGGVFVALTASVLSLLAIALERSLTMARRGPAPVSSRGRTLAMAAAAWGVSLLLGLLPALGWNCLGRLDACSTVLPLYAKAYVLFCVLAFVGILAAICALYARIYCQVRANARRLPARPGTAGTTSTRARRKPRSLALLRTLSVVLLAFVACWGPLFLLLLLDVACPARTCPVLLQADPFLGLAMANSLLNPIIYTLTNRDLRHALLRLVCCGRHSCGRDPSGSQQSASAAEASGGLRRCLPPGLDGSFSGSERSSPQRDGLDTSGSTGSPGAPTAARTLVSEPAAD

S1PR = conditions: known; cited from earlier work

| SMILES | amelioration of the deterioration of cell viability during the low-temperature preservation (Flp-In™ CHO cell line; 10 μM, 4° C., versus Vehicle) | viability at 10 µM (Flp-In™ CHO cell line; Cricetulus griseus, 360 h, low-temperature preservation period 15 days) [%] | amelioration of the deterioration of cell viability during the low-temperature preservation ([1]; 4° C., versus Vehicle) | viability at 10 µM ([1]; Homo sapiens, Endothelial cell, 360 h, low-temperature preservation period 15 days) [%] | fibrotic area of myocardium [2] | viable area of myocardium [2] | inhibiting activity to S1PR2 (S1PR2) | inhibiting activity to S1PR1 (S1PR1) | toxicity to the cells (the cells) | amelioration of the deterioration of cell viability during the low-temperature preservation (cold damage suppression) [3] | amelioration of the deterioration of cell viability during the low-temperature preservation [4] | inhibiting activity to S1PR4 (S1PR4) | cold damage (deterioration of viability) suppression ([5]; 10 μM added simultaneously with the start of the low-temperature preservation) | cold damage (deterioration of viability) suppression ([5]; 10 μM added to the medium before the start of the low-temperature preservation) | cold damage (deterioration of viability) suppression ([5]; 10 μM added when the temperature was turned to 37° C. after the low-temperature preservation (Rewarm treat)) | inhibiting activity to S1PR5 (S1PR5) | S1PR antagonist (S1PR) |
| --- | --- | --- | --- | --- | --- | --- | --- | --- | --- | --- | --- | --- | --- | --- | --- | --- | --- |
| CC(C)(C)C(=O)/C(=N/c1ccc(Cl)cc1)NNc1ccc(Cl)cc1 [Compound 1, N-(4-chlorophenyl)-N′-(4-chlorophenylamino)-3,3-dimethyl-2-oxobutanamidine] | amelioration of the deterioration of cell viability | > 50 | amelioration of the deterioration of cell viability | > 50 | less fibrotic one | more viable myocardium | has an inhibiting activity | has an inhibiting activity | did not exhibit toxicity | concentration-dependent amelioration | amelioration of the deterioration of cell viability | has an inhibiting activity | could be suppressed | could be suppressed | not sufficiently suppressed | has an inhibiting activity | S1PR antagonists |
| Cc1nn(C)c2nc(NNC(=O)Nc3cc(Cl)nc(Cl)c3)cc(C(C)C)c12 [Compound 2, N-(2,6-dichloro-4-pyridinyl)-2-[1,3-dimethyl-4-(1-methylethyl)-1H-pyrazolo[3,4-b]pyridin-6-yl]-hydrazinecarboxamide] | – | – | – | – | – | – | – | – | did not exhibit toxicity | concentration-dependent amelioration | – | – | – | – | – | – | S1PR antagonists |
